# Assays:
# Format in all cases: cell-based
# SW-620 = test: NCI DTP cell line screen (SRB), Colon Cancer
# Experimental: (§1) Screening of compounds 70 and 71 against several cancer cell lines The human tumor cell lines of the cancer screening panel are grown in RPMI 1640 medium containing 5% fetal bovine serum and 2 mM L-glutamine. For a typical screening experiment, cells are inoculated into 96 well microtiter plates in 100 μL at plating densities ranging from 5,000 to 40,000 cells/well depending on the doubling time of individual cell lines. After cell inoculation, the microtiter plates are incubated at 37° C., 5% CO2, 95% air and 100% relative humidity for 24 h prior to addition of experimental drugs.
# (§2) After 24 h, two plates of each cell line are fixed in situ with TCA, to represent a measurement of the cell population for each cell line at the time of drug addition (Tz). Experimental drugs are solubilized in dimethyl sulfoxide at 400-fold the desired final maximum test concentration and stored frozen prior to use. At the time of drug addition, an aliquot of frozen concentrate is thawed and diluted to twice the desired final maximum test concentration with complete medium containing 50 μg/ml gentamicin. Additional four, 10-fold or ½ log serial dilutions are made to provide a total of five drug concentrations plus control. Aliquots of 100 μl of these different drug dilutions are added to the appropriate microtiter wells already containing 100 μl of medium, resulting in the required final drug concentrations.
# (§3) Following drug addition, the plates are incubated for an additional 48 h at 37° C., 5% CO2, 95% air, and 100% relative humidity. For adherent cells, the assay is terminated by the addition of cold TCA. Cells are fixed in situ by the gentle addition of 50 μl of cold 50% (w/v) TCA (final concentration, 10% TCA) and incubated for 60 minutes at 4° C. The supernatant is discarded, and the plates are washed five times with tap water and air dried. Sulforhodamine B (SRB) solution (100 μl) at 0.4% (w/v) in 1% acetic acid is added to each well, and plates are incubated for 10 minutes at room temperature. After staining, unbound dye is removed by washing five times with 1% acetic acid and the plates are air dried. Bound stain is subsequently solubilized with 10 mM trizma base, and the absorbance is read on an automated plate reader at a wavelength of 515 nm. For suspension cells, the methodology is the same except that the assay is terminated by fixing settled cells at the bottom of the wells by gently adding 50 μl of 80% TCA (final concentration, 16% TCA). Using the seven absorbance measurements [time zero, (Tz), control growth, (C), and test growth in the presence of drug at the five concentration levels (Ti)], the percentage growth is calculated at each of the drug concentrations levels. Percentage growth inhibition is calculated as: [(Ti−Tz)/(C−Tz)]×100 for concentrations for which Ti>/=Tz [(Ti−Tz)/Tz]×100 for concentrations for which Ti<Tz
# (§4) Three dose response parameters are calculated for each experimental agent. […] The drug concentration resulting in total growth inhibition (TGI) is calculated from Ti=Tz. […] Values are calculated for each of these three parameters if the level of activity is reached; however, if the effect is not reached or is exceeded, the value for that parameter is expressed as greater or less than the maximum or minimum concentration tested.
# (§5) The methods described were used to test compounds 70 and 71 on a panel of sixty cell lines under a screening service provided by the Developmental Therapeutics Program at the National Institutes of Health. Shown in FIG. 1C are 1, RPMI-8226 leukemia cells; 2; NCI-H322M non-small cell lung cancer cells; 3, HT29 colon cancer cells; 4, U251 CNS cancer cells; 5, SK-MEL-28 melanoma cancer cells; 6, SK-OV-3 ovarian cancer cells; 7, RXF 393 renal cancer cells; 8, PC-3 prostate cancer cells; 9, MDA-MB-231 breast cancer cells.
# KM12 = test: NCI DTP cell line screen (SRB), Colon Cancer
# Experimental: as §1, §2, §3, §4, §5
# HCT-116 = test: NCI DTP cell line screen (SRB), Colon Cancer
# Experimental: as §1, §2, §3, §4, §5
# NCI-H23 = test: NCI DTP cell line screen (SRB), Non-Small Cell Lung Cancer
# Experimental: as §1, §2, §3, §4, §5
# A549/ATCC = test: as above
# Experimental: as §1, §2, §3, §4, §5
# EKVX = test: as above
# Experimental: as §1, §2, §3, §4, §5
# HOP-62 = test: as above
# Experimental: as §1, §2, §3, §4, §5
# NCI-H322M = test: as above
# Experimental: as §1, §2, §3, §4, §5
smiles,measurement,setting,value
"NCC(=O)Nc1ccc(-n2nc(C(F)(F)F)cc2-c2ccc3c(ccc4ccccc43)c2)cc1 [Compound 70, 2-Amino-N-{4-[5-(2-phenanthrenyl)-3-(trifluoromethyl)-1H-pyrazol-1-yl]-phenyl}-acetamide]",TGI,SW-620,4.23E−06
same,Percent Growth,SW-620; Log10 Concentration −4.0,−28%
same,Percent Growth,SW-620; Log10 Concentration −5.0,−32%
same,Percent Growth,SW-620; Log10 Concentration −6.0,54%
same,Percent Growth,SW-620; Log10 Concentration −7.0,100%
same,Percent Growth,SW-620; Log10 Concentration −8.0,100%
same,TGI,KM12,2.67E−06
same,Percent Growth,KM12; Log10 Concentration −4.0,−51%
same,Percent Growth,KM12; Log10 Concentration −5.0,−73%
same,Percent Growth,KM12; Log10 Concentration −6.0,54%
same,Percent Growth,KM12; Log10 Concentration −7.0,91%
same,Percent Growth,KM12; Log10 Concentration −8.0,98%
same,Percent Growth,HCT-116; Log10 Concentration −4.0,5%
same,Percent Growth,HCT-116; Log10 Concentration −5.0,−9%
same,Percent Growth,HCT-116; Log10 Concentration −6.0,57%
same,Percent Growth,HCT-116; Log10 Concentration −7.0,93%
same,Percent Growth,HCT-116; Log10 Concentration −8.0,107%
same,TGI,NCI-H23,2.87E−06
same,Percent Growth,NCI-H23; Log10 Concentration −4.0,−66%
same,Percent Growth,NCI-H23; Log10 Concentration −5.0,−79%
same,Percent Growth,NCI-H23; Log10 Concentration −6.0,67%
same,Percent Growth,NCI-H23; Log10 Concentration −7.0,102%
same,Percent Growth,NCI-H23; Log10 Concentration −8.0,101%
same,TGI,A549/ATCC,2.96E−06
same,Percent Growth,A549/ATCC; Log10 Concentration −4.0,−31%
same,Percent Growth,A549/ATCC; Log10 Concentration −5.0,−57%
same,Percent Growth,A549/ATCC; Log10 Concentration −6.0,51%
same,Percent Growth,A549/ATCC; Log10 Concentration −7.0,86%
same,Percent Growth,A549/ATCC; Log10 Concentration −8.0,102%
same,TGI,EKVX,3.25E−06
same,CC50,"EKVX; Homo sapiens, read-out: LC50",7.08 µM
same,Percent Growth,EKVX; Log10 Concentration −4.0,−65%
same,Percent Growth,EKVX; Log10 Concentration −5.0,−72%
same,Percent Growth,EKVX; Log10 Concentration −6.0,75%
same,Percent Growth,EKVX; Log10 Concentration −7.0,100%
same,Percent Growth,EKVX; Log10 Concentration −8.0,110%
same,TGI,HOP-62,3.01E−06
same,Percent Growth,HOP-62; Log10 Concentration −4.0,−57%
same,Percent Growth,HOP-62; Log10 Concentration −5.0,−70%
same,Percent Growth,HOP-62; Log10 Concentration −6.0,64%
same,Percent Growth,HOP-62; Log10 Concentration −7.0,93%
same,Percent Growth,HOP-62; Log10 Concentration −8.0,90%
same,TGI,NCI-H322M,2.18E−06
same,Percent Growth,NCI-H322M; Log10 Concentration −4.0,−57%
same,Percent Growth,NCI-H322M; Log10 Concentration −5.0,−84%
same,Percent Growth,NCI-H322M; Log10 Concentration −6.0,43%
same,Percent Growth,NCI-H322M; Log10 Concentration −7.0,51%
same,Percent Growth,NCI-H322M; Log10 Concentration −8.0,40%

# From patent US8541460B2, “PDK-1/Akt signaling inhibitors” (The Ohio State University, priority 2003, dated 2013)
